{"source": "patent US20120264803A1", "about": "“METHOD FOR PREDICTING THERAPEUTIC EFFECTS OF CHEMOTHERAPY ON HEPATOCELLULAR CARCINOMA PATIENTS” (priority 2009, published 2012)", "key": {"[1]": {"system": "hepatocellular carcinoma patients treated with TACE", "assay": "Comparative clinical study of TSU-68 administration vs non-administration after TACE (progression-free survival)", "type": "in vivo, human", "experimental": "A comparative clinical study was conducted for the TSU-68 administration group and the TSU-68 non-administration group consisting of cases diagnosed as hepatocellular carcinoma that were impossible to treat with hepatectomy and PAT and had been treated with TACE. The antitumor agent used herein for TACE was epirubicin.\nThe subject cases were randomly assigned to the TSU-68 administration group and the TSU-68 non-administration group. TSU-68 administration was initiated for cases assigned to the TSU-68 administration group within 2 weeks after TACE. TSU-68 was administered orally at a dose of 200 mg per administration twice daily after breakfast and dinner on consecutive days. No further cancer treatment was given to the TSU-68 non-administration group after TACE and thus only follow-up observation was carried out.\nProgression-free survival was defined as survival within the period from the day of TACE designated as the initial date of reckoning to any of dates on which the following events was observed, whichever came first.\n1. Date on which the presence of progressive disease (hereinafter referred to as “PD”) was confirmed as a result of assessment of best overall response (date of testing). 2. Date on which a test subject died for any reason (date of death). 3. Date on which a test subject was assessed to have experienced clinically obvious deterioration of the disease or to be in need of post-TACE treatment even without confirmation of PD upon assessment of best overall response (date of assessment).\nBest overall response was evaluated by measuring tumor diameters by CT and assaying tumor markers (AFP, PIVKA-II, and AFP-L3 fractions) according to New Guideline to Evaluate the Response to Treatment in Solid Tumor (hereinafter referred to as “RECIST”) (J Natl Cancer Inst 92: 205, 2000).\nThe expression levels of PDGF-BB and IL-8 in blood obtained before TSU-68 administration after TACE were determined using ELISA Kits as described below.\nCut-off points were determined by the statistical analysis technique described below based on the quantified PDGF-BB and IL-8 levels.\n(1) The cut-off point for dividing patients into the PDGF-BB hyperexpression group and the PDGF-BB underexpression group was calculated so that the difference between the 6-month-progression-free survival rate for the TSU-68 administration group and the 6-month-progression-free survival rate for the TSU-68 non-administration group was 20% or more for patients in the PDGF-BB hyperexpression group. The cut-off point was 1480 to 2030 pg/ml. (2) The cut-off point for dividing patients into the PDGF-BB hyperexpression group and the PDGF-BB underexpression group was calculated so that the hazard ratio of the TSU-68 administration group to the TSU-68 non-administration group was 0.6 or less for patients in the PDGF-BB hyperexpression group. The cut-off point was 1740 to 1960 pg/ml. (3) The cut-off point for dividing patients into the IL-8 hyperexpression group and the IL-8 underexpression group was calculated so that the difference between the 6-month-progression-free survival rate for the TSU-68 administration group and the 6-month-progression-free survival rate for the TSU-68 non-administration group was 20% or more for cases in the IL-8 hyperexpression group. The cut-off point was 2.1 to 6.6 pg/ml. (4) The cut-off point for dividing patients into the IL-8 hyperexpression group and the IL-8 underexpression group was calculated so that the hazard ratio of the TSU-68 administration group to the TSU-68 non-administration group was 0.6 or less for cases in the IL-8 hyperexpression group. The cut-off point was 2.1 to 10.5 pg/ml.\nThe PDGF-BB hyperexpression group, the PDGF-BB underexpression group, the IL-8 hyperexpression group, and the IL-8 underexpression group were subjected to survival time analysis of the TSU-68 administration group and the TSU-68 non-administration group with the use of the cut-off points calculated in Example 1."}, "[2]": {"system": "human cancer cell lines subcutaneously implanted (lung cancer, colon cancer, ovarian cancer)", "conditions": "oral administration of TSU-68 alone, Non-Patent Literature 3; cited from earlier work"}, "[3]": {"conditions": "IL-8 hyperexpression group, cut-off 2.1 pg/ml, vs non-administration"}, "[4]": {"conditions": "IL-8 hyperexpression group, cut-off 6.6 pg/ml, vs non-administration"}, "[5]": {"conditions": "IL-8 hyperexpression group, cut-off 10.5 pg/ml, vs non-administration"}, "[6]": {"conditions": "IL-8 underexpression group, cut-off 6.6 pg/ml, vs non-administration"}, "[7]": {"conditions": "IL-8 underexpression group, cut-off 10.5 pg/ml, vs non-administration"}, "[8]": {"conditions": "PDGF-BB hyperexpression group, cut-off 1480 pg/ml, vs non-administration"}, "[9]": {"conditions": "PDGF-BB hyperexpression group, cut-off 1740 pg/ml, vs non-administration"}, "[10]": {"conditions": "PDGF-BB hyperexpression group, cut-off 1960 pg/ml, vs non-administration"}, "[11]": {"conditions": "PDGF-BB hyperexpression group, cut-off 2030 pg/ml, vs non-administration"}, "[12]": {"conditions": "PDGF-BB underexpression group, cut-off 1480 pg/ml, vs non-administration"}, "[13]": {"conditions": "PDGF-BB underexpression group, cut-off 1740 pg/ml, vs non-administration"}, "[14]": {"conditions": "PDGF-BB underexpression group, cut-off 1960 pg/ml, vs non-administration"}, "[15]": {"conditions": "PDGF-BB underexpression group, cut-off 2030 pg/ml, vs non-administration"}, "[16]": {"conditions": "patients having high PDGF-BB or IL-8 blood levels (summary over cut-off points), vs non-administration"}, "[17]": {"conditions": "stratified using reported VCAM cut-off point 2370 pg/ml (data not shown), vs non-administration"}}}
{"smiles": "Cc1[nH]c(/C=C2\\C(=O)Nc3ccccc32)c(C)c1CCC(=O)O", "note": "[TSU-68, (Z)-5-[(1,2-dihydro-2-oxo-3H-indol-3-ylidene)methyl]2,4-dimethyl-1H-pyrro 1-3-propanoic acid]", "values": [{"measurement": "6-month-progression-free survival rates", "setting": "[1]; IL-8 hyperexpression group, cut-off 2.1 pg/ml", "value": 48, "unit": "%"}, {"measurement": "Difference between 6-month-progression-free survival rate", "setting": "[1]; [3]", "value": 23, "unit": "%"}, {"measurement": "Hazard ratio", "setting": "[1]; [3]", "value": 0.51}, {"measurement": "6-month-progression-free survival rate", "setting": "[1]; IL-8 hyperexpression group, cut-off 6.6 pg/ml", "value": 50, "unit": "%"}, {"measurement": "Difference between 6-month-progression-free survival rates", "setting": "[1]; [4]", "value": 20, "unit": "%"}, {"measurement": "Hazard ratio", "setting": "[1]; [4]", "value": 0.51}, {"measurement": "6-month-progression-free survival rate", "setting": "[1]; IL-8 hyperexpression group, cut-off 10.5 pg/ml", "value": 56, "unit": "%"}, {"measurement": "Difference between 6-month-progression-free survival rates", "setting": "[1]; [5]", "value": 27, "unit": "%"}, {"measurement": "Hazard ratio", "setting": "[1]; [5]", "value": 0.51}, {"measurement": "6-month-progression-free survival rates", "setting": "[1]; IL-8 underexpression group, cut-off 2.1 pg/ml", "value": 0, "unit": "%"}, {"measurement": "Difference between 6-month-progression-free survival rate", "setting": "[1]; IL-8 underexpression group, cut-off 2.1 pg/ml, vs non-administration", "value": "−57", "unit": "%"}, {"measurement": "6-month-progression-free survival rate", "setting": "[1]; IL-8 underexpression group, cut-off 6.6 pg/ml", "value": 39, "unit": "%"}, {"measurement": "Difference between 6-month-progression-free survival rates", "setting": "[1]; [6]", "value": 9, "unit": "%"}, {"measurement": "Hazard ratio", "setting": "[1]; [6]", "value": 0.92}, {"measurement": "6-month-progression-free survival rate", "setting": "[1]; IL-8 underexpression group, cut-off 10.5 pg/ml", "value": 41, "unit": "%"}, {"measurement": "Difference between 6-month-progression-free survival rates", "setting": "[1]; [7]", "value": 11, "unit": "%"}, {"measurement": "Hazard ratio", "setting": "[1]; [7]", "value": 0.79}, {"measurement": "6-month-progression-free survival rate", "setting": "[1]; PDGF-BB hyperexpression group, cut-off 1480 pg/ml", "value": 52, "unit": "%"}, {"measurement": "Difference between 6-month-progression-free survival rates", "setting": "[1]; [8]", "value": 21, "unit": "%"}, {"measurement": "Hazard ratio", "setting": "[1]; [8]", "value": 0.64}, {"measurement": "6-month-progression-free survival rate", "setting": "[1]; PDGF-BB hyperexpression group, cut-off 1740 pg/ml", "value": 52, "unit": "%"}, {"measurement": "Difference between 6-month-progression-free survival rates", "setting": "[1]; [9]", "value": 25, "unit": "%"}, {"measurement": "Hazard ratio", "setting": "[1]; [9]", "value": 0.59}, {"measurement": "6-month-progression-free survival rate", "setting": "[1]; PDGF-BB hyperexpression group, cut-off 1960 pg/ml", "value": 52, "unit": "%"}, {"measurement": "Difference between 6-month-progression-free survival rates", "setting": "[1]; [10]", "value": 25, "unit": "%"}, {"measurement": "Hazard ratio", "setting": "[1]; [10]", "value": 0.55}, {"measurement": "6-month-progression-free survival rate", "setting": "[1]; PDGF-BB hyperexpression group, cut-off 2030 pg/ml", "value": 52, "unit": "%"}, {"measurement": "Difference between 6-month-progression-free survival rates", "setting": "[1]; [11]", "value": 24, "unit": "%"}, {"measurement": "Hazard ratio", "setting": "[1]; [11]", "value": 0.62}, {"measurement": "6-month-progression-free survival rate", "setting": "[1]; PDGF-BB underexpression group, cut-off 1480 pg/ml", "value": 25, "unit": "%"}, {"measurement": "Difference between 6-month-progression-free survival rates", "setting": "[1]; [12]", "value": 2, "unit": "%"}, {"measurement": "Hazard ratio", "setting": "[1]; [12]", "value": 0.73}, {"measurement": "6-month-progression-free survival rate", "setting": "[1]; PDGF-BB underexpression group, cut-off 1740 pg/ml", "value": 40, "unit": "%"}, {"measurement": "Difference between 6-month-progression-free survival rates", "setting": "[1]; [13]", "value": 2, "unit": "%"}, {"measurement": "Hazard ratio", "setting": "[1]; [13]", "value": 0.85}, {"measurement": "6-month-progression-free survival rate", "setting": "[1]; PDGF-BB underexpression group, cut-off 1960 pg/ml", "value": 40, "unit": "%"}, {"measurement": "Difference between 6-month-progression-free survival rates", "setting": "[1]; [14]", "value": 7, "unit": "%"}, {"measurement": "Hazard ratio", "setting": "[1]; [14]", "value": 0.84}, {"measurement": "6-month-progression-free survival rate", "setting": "[1]; PDGF-BB underexpression group, cut-off 2030 pg/ml", "value": 42, "unit": "%"}, {"measurement": "Difference between 6-month-progression-free survival rates", "setting": "[1]; [15]", "value": 10, "unit": "%"}, {"measurement": "Hazard ratio", "setting": "[1]; [15]", "value": 0.75}, {"measurement": "6-month-progression-free survival rate", "setting": "[1]; all cases, TSU-68 200 mg orally twice daily after TACE", "value": 47, "unit": "%"}, {"measurement": "Hazard ratio", "setting": "[1]; all cases, TSU-68 administration to non-administration group", "value": 0.69}, {"measurement": "Difference between 6-month-progression-free survival rates", "setting": "[1]; all cases, TSU-68 administration vs non-administration group", "value": 18, "unit": "%"}, {"measurement": "Difference between 6-month-progression-free survival rates", "setting": "[1]; [16]", "value": "22% to 27"}, {"measurement": "Hazard ratio", "setting": "[1]; [16]", "value": "0.51 to 0.68"}, {"measurement": "Difference between 6-month-progression-free survival rates", "setting": "[1]; [17]", "value": "< 20", "unit": "%"}, {"measurement": "Hazard ratio", "setting": "[1]; [17]", "value": "> 0.6"}, {"measurement": "antitumor effects (tumor growth inhibition)", "setting": "[2]", "value": "effective for inhibiting tumor growth"}]}
